Key:
[1] = Mean arterial blood pressure (MAP); assay type: in vivo, rat; conditions: s.c. 60 min. before electrical stimulation of the saphenous nerve
Description: For injections of drugs into the brain, a 21-gauge guide cannula was stereotaxically implanted into the lateral ventricle and a 28-gauge internal cannula coupled to a Hamilton microsyringe was used to deliver a 5-μl volume of drug solution to the brain. The site of injection was verified by injections of 0.5% solutions of methylene blue into the same cannula. In some experiments, blood pressure was measured from a cannulated carotid artery coupled to a Narcobiosystems strain gauge, cardiotachometer and polygraph. Mean arterial blood pressure (MAP) was calculated as 1/3 pulse pressure plus diastolic pressure.
As has been known, CRF and related peptides produce hypotension in anesthetized and unanesthetized animals. […] Neither does the inflammation inhibition of the present invention appear to have any associaton with the hypotensive properties of CRF and its analogs.

rat hind paw [2] = test: Heat-induced paw edema and protein extravasation (Evans blue), hind paw in 58° C. water for 5 min.; assay type: in vivo
Description: Male albino rats weighing 200 to 280 g were anesthetized with sodium pentobarbital, 60 mg/kg i.p., and a right jugular vein cannulated for drug injections. Human/rat CRF (at various dosages described below) or saline, and Evans blue dye, 50 mg/kg, were injected intravenously 10 and 3 min., respectively, before immersion of the hind paw in 48° C. or 58° C. water for 5 min. The frequency of paw withdrawal from the water was then counted.
(§1) At the end of the exposure period, the animals were sacrificed and the dorsal skin, between the calcaneal process and phalanges, was removed from both paws, weighed, and each placed in 4 ml of formamide for 3 days at room temperature. The extracted Evans blue was quantified colorimetrically at 600 nm with readings from the untreated paw skin used as the blank values.
Protein extravasation was measured by injecting a dye into a blood compartment of the animal. The dye binds to blood proteins and when the permeability of the tissue is increased by the heat, the dye leaks into the skin of the paw. The skin of the paw was excised, the dye extracted, and the amount of dye in the skin was measured to provide an index of the skin permeability changes that accompany the heat damage. […] In a manner analogous to that described above for administration of CRF, sauvagine was administered and paws of the anesthetized recipients exposed to water at 58° C. Saline was administered to a control group. The dose of sauvagine was 5 μg/kg given i.v. 5 min. before paw immersion.
In addition, other groups of rats were administered eithe rmorphine sulfate or dexamethasone, and groups of rats were administered saline as controls.

rat hind paw [3] = test: Heat-induced paw edema and protein extravasation, hind paw in 48° C. water for 5 min.; assay type: in vivo; conditions: sauvagine 5 μg/kg i.v. 5 min. before
Description: Male albino rats weighing 200 to 280 g were anesthetized with sodium pentobarbital, 60 mg/kg i.p., and a right jugular vein cannulated for drug injections. […] The frequency of paw withdrawal from the water was then counted. Leakage of Evans blue dye into the paw skin becomes visible within 2 min. At water temperatures of 58° C., the average dye content was 364±17 μg/paw for rats receiving saline.
as §1
FIG. 3 illustrates the inhibition by CRF of heat-induced tissue edema, as measured by changes in skin weight. When the paw of an untreated, anesthetized rat is placed in warm water (48° C.) for 5 min., the paw swells and this paw edema can be measured simply by weighing the heated paw skin and comparing its weight to the contralateral, unheated paw skin. If just saline (that is, isotonic salt water) is injected as the control procedure, the percent increase in weight (with respect to unheated paw) is 72%.

[4] = 3.0 mg/kg i.v., 5 min. before exposure
[5] = 0.50 mg/kg i.v., 5 min. before exposure
[6] = 0.94 mg/kg i.v., 20 min. before exposure
[7] = 3.75 mg/kg i.v., 20 min. before exposure
[8] = 0.005 mg/kg i.v., 5 min. before exposure
[9] = Table I, sheep CRF at 0.168 mg/kg i.v., sauvagine at 5 μg/kg i.v.

## CC[C@H](C)[C@H](NC(=O)[C@@H](NC(=O)[C@H](CCC(=O)O)NC(=O)[C@H](CCSC)NC(=O)[C@H](CC(C)C)NC(=O)[C@H](CCCCN)NC(=O)[C@H](CCCNC(=N)N)NC(=O)[C@H](CC(N)=O)NC(=O)[C@H](CO)NC(=O)[C@H](Cc1c[nH]cn1)NC(=O)[C@H](C)NC(=O)[C@H](CCC(N)=O)NC(=O)[C@H](CCC(N)=O)NC(=O)[C@H](C)NC(=O)[C@H](CC(C)C)NC(=O)[C@H](CCC(N)=O)NC(=O)[C@H](CCC(=O)O)NC(=O)[C@H](C)NC(=O)[C@H](CCCNC(=N)N)NC(=O)[C@H](C)NC(=O)[C@H](CCSC)NC(=O)[C@H](CCC(=O)O)NC(=O)[C@H](CC(C)C)NC(=O)[C@@H](NC(=O)[C@H](CCC(=O)O)NC(=O)[C@H](CCCNC(=N)N)NC(=O)[C@H](CC(C)C)NC(=O)[C@H](CC(C)C)NC(=O)[C@H](Cc1c[nH]cn1)NC(=O)[C@H](Cc1ccccc1)NC(=O)[C@@H](NC(=O)[C@H](CC(C)C)NC(=O)[C@H](CC(=O)O)NC(=O)[C@H](CC(C)C)NC(=O)[C@H](CO)NC(=O)[C@@H](NC(=O)[C@@H]1CCCN1C(=O)[C@@H]1CCCN1C(=O)[C@H](CCC(=O)O)NC(=O)[C@H](CCC(=O)O)NC(=O)[C@@H](N)CO)[C@@H](C)CC)[C@@H](C)O)C(C)C)[C@@H](C)CC)C(N)=O [rCRF, Corticotropin Releasing Factor]
[1]
  effect on mean arterial pressure: did not lower mean arterial pressure

## CN1CC[C@]23c4c5ccc(O)c4O[C@H]2[C@@H](O)C=C[C@H]3[C@H]1C5.O=S(=O)(O)O [morphine SO4, morphine sulfate, reference compound]
Rat hind paw [2]; [4]
  % Weight Increase: 157 ± 12%
  Dye μg/paw: 290 ± 36 μg/paw

## C[C@@H]1C[C@H]2[C@@H]3CCC4=CC(=O)C=C[C@]4(C)[C@@]3(F)[C@@H](O)C[C@]2(C)[C@@]1(O)C(=O)CO [dexamethasone, reference compound]
Rat hind paw [2]; [5]
  % Weight Increase: 170 ± 14%
  Dye μg/paw: 375 ± 23 μg/paw
Rat hind paw [2]; doses of Table I
  inhibition of edema (in words): neither morphine nor dexamethasone inhibits either edema
  inhibition of protein extravasation / dye leakage (in words): neither morphine nor dexamethasone inhibits

## dynorphin (1-13)
Rat hind paw [2]; 940 μg/kg
  reduction of edema (in words): did not
  reduction of protein extravasation (in words): did not
Rat hind paw [2]; [6]
  % Weight Increase: 194 ± 6%
  Dye μg/paw: 411 ± 15 μg/paw
Rat hind paw [2]; 3750 μg/kg i.v.
  reduction of edema (in words): did reduce edema
  reduction of protein extravasation (in words): did reduce edema and protein extravasation
Rat hind paw [2]; [7]
  % Weight Increase: 87 ± 17%
  Dye μg/paw: 223 ± 37 μg/paw

## sauvagine
Rat hind paw [3]
  dye increase: 13.7 ± 3.5 μg/paw
  paw skin weight increase: 4.9%+2.0
Rat hind paw [2]; [8]
  % Weight Increase: 51 ± 11%
  Dye μg/paw: 86 ± 18 μg/paw
Rat hind paw [2]; [9]
  reduction of edema relative to saline: about comparable to the sheep CRF at 168 μg/kg i.v. in reducing edema
  reduction of protein extravasation relative to saline: even more effective in reducing protein extravasation

From US4801612A, “Method of inhibiting inflammatory response” (Regents of the University of California, priority 1986, dated 1989)
